# Target: IRAK4 (Homo sapiens (Human), UniProt Q9NWZ3)
# Test: In vitro IRAK4 phosphorylation activity assay
# Format: biochemical
# Settings: [γ-33P]-ATP, myelin basic protein substrate, 40 minutes at room temperature; categories
# Method: In vitro IRAK4 analysis was performed using N-(1H-imidazol-2-yl)benzamide compounds according to the present invention. All compounds were prepared by dissolving in DMSO. N-(1H-imidazol-2-yl)benzamide compound according to the present invention and other elements for the reaction were added to an assay well. In the standard Kinase Profiler service the preincubation step between the N-(1H-imidazol-2-yl)benzamide compound and kinase was not performed before the reaction.
# To the positive control well, all reactants except for the N-(1H-imidazol-2-yl)benzamide compound according to the present invention were added, and DMSO was added to remove the solvent effect. A known control inhibitor having the following structure was added to the blank wells to inhibit kinase activity and establish a base-line.
# IRAK4 was incubated with 8 mM MOPS pH 7.0, 0.2 mM EDTA, 0.33 mg/mL myelin basic protein, 10 mM magnesium acetate and [γ-33P]-ATP (specific activity approx. 500 cpm/pmol, concentration as required). The reaction was initiated by the addition of the MgATP mix. After incubation for 40 minutes at room temperature, the reaction was stopped by the addition of 3% phosphoric acid solution. 10 μL of the reaction was then spotted onto a P30 filtermat and washed three times for 5 minutes in 75 mM phosphoric acid and once in methanol prior to drying and scintillation counting.
# The results are shown in Table 26 below, where the phosphorylation activity of IC50 values for IRAK4 is shown in categories (A: <50 nM, B: 50-100 nM, C: >100 nM).
# Sequence of IRAK4 (Q9NWZ3 whole entry): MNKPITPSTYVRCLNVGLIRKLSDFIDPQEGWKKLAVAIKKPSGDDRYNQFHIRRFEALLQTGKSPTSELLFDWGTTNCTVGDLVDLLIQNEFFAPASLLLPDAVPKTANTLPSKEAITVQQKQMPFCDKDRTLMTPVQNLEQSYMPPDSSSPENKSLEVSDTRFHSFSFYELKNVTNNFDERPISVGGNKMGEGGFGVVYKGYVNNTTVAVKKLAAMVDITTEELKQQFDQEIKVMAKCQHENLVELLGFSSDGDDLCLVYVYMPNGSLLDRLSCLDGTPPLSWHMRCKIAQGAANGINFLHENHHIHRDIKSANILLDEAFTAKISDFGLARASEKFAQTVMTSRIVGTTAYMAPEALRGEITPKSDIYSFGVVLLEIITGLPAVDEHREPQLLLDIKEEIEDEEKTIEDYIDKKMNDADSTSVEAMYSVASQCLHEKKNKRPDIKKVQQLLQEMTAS
row,Structure (SMILES),IC50 [nM]
1,"CNC(=O)CCCc1cn(-c2ccccc2)c(NC(=O)c2cccc(-c3cnn(C)c3)c2)n1 [Example 139, 3-(1-methyl-1H-pyrazol-4-yl)-N-(4-(4-(methylamino)-4-oxobutyl)-1-phenyl-1H-imidazol-2-yl)benzamide]",< 50
2,"O=C(Nc1nc(CCC(=O)N2CCCC(C(=O)O)C2)cn1-c1ccccc1)c1cccc(-c2cn[nH]c2)c1 [Example 36, (S)-1-(3-(2-(3-(1H-pyrazol-4-yl)benzamido)-1-phenyl-1H-imidazol-4-yl)propanoyl)piperidine-3-carboxylic acid]",< 50
3,"O=C(CCc1cn(-c2ccccc2)c(NC(=O)c2cccc(-c3cn[nH]c3)c2)n1)Nc1ccccn1 [Example 15, N-(4-(3-oxo-3-(pyridin-2-ylamino)propyl)-1-phenyl-1H-imidazol-2-yl)-3-(1H-pyrazol-4-yl)benzamide]",> 100
4,"COC[C@H]1CCCN1C(=O)CCCc1cn(-c2ccccc2)c(NC(=O)c2cccc(-c3cn[nH]c3)c2)n1 [Example 56, (R)—N-(4-(4-(2-(methoxymethyl)pyrrolidin-1-yl)-4-oxobutyl)-1-phenyl-1H-imidazol-2-yl)-3-(1H-pyrazol-4-yl)benzamide]",< 50
5,"Cn1cc(-c2cccc(C(=O)Nc3nc(CCCC(=O)N4CCN(S(C)(=O)=O)CC4)cn3-c3ccccc3)c2)cn1 [Example 206, 3-(1-methyl-1H-pyrazol-4-yl)-N-(4-(4-(4-(methylsulfonyl)piperazin-1-yl)-4-oxobutyl)-1-phenyl-1H-imidazol-2-yl)benzamide]",< 50
6,"C[C@@H]1CCC[C@H](C)N1C(=O)CCCc1cn(-c2ccccc2)c(NC(=O)c2cccc(-c3cn[nH]c3)c2)n1 [Example 63, N-(4-(4-((2R,6S)-2,6-dimethylpiperidin-1-yl)-4-oxobutyl)-1-phenyl-1H-imidazol-2-yl)-3-(1H-pyrazol-4-yl)benzamide]",< 50
7,"O=C(Nc1nc(CCC(=O)N2CC[C@@H](C(=O)O)C2)cn1-c1ccccc1)c1cccc(-c2cn[nH]c2)c1 [Example 25, (R)-1-(3-(2-(3-(1H-pyrazol-4-yl)benzamido)-1-phenyl-1H-imidazol-4-yl)propanoyl)pyrrolidine-3-carboxylic acid]",50 to 100
8,"O=C(CCCc1cn(-c2ccccc2)c(NC(=O)c2cccc(-c3cn[nH]c3)c2)n1)NC1CCC1 [Example 69, N-(4-(4-(cyclobutylamino)-4-oxobutyl)-1-phenyl-1H-imidazol-2-yl)-3-(1H-pyrazol-4-yl)benzamide]",< 50
9,"O=C(CCc1cn(-c2ccccc2)c(NC(=O)c2cccc(-c3c[nH]nc3C(F)(F)F)c2)n1)Nc1ccccc1 [Example 3, N-(4-(3-oxo-3-(phenylamino)propyl)-1-phenyl-1H-imidazol-2-yl)-3-(3-(trifluoromethyl)-1H-pyrazol-4-yl)benzamide]",> 100
10,"O=C(Nc1nc(CCCCC(=O)N2CCCCC2)cn1-c1ccccc1)c1cccc(-c2cn[nH]c2)c1 [Example 79, N-(4-(5-oxo-5-(piperidin-1-yl)pentyl)-1-phenyl-1H-imidazol-2-yl)-3-(1H-pyrazol-4-yl)benzamide]",< 50
11,"O=C(CCc1cn(-c2cccc(Cl)c2)c(NC(=O)c2cccc(-c3cn[nH]c3)c2)n1)Nc1ccccc1 [Example 293, N-(1-(3-chlorophenyl)-4-(3-oxo-3-(phenylamino)propyl)-1H-imidazol-2-yl)-3-(1H-pyrazol-4-yl)benzamide]",< 50
12,"O=C(Nc1nc(CCCCO)cn1-c1ccccc1)c1cccc(-c2cn[nH]c2)c1 [Example 111, N-(4-(4-hydroxybutyl)-1-phenyl-1H-imidazol-2-yl)-3-(1H-pyrazol-4-yl)benzamide]",< 50
13,"Cn1cc(-c2cccc(C(=O)Nc3nc(CCCC(=O)NC[C@@H](F)C(C)(C)O)cn3-c3ccccc3)c2)cn1 [Example 185, (R)—N-(4-(4-((2-fluoro-3-hydroxy-3-methylbutyl)amino)-4-oxobutyl)-1-phenyl-1H-imidazol-2-yl)-3-(1-methyl-1H-pyrazol-4-yl)benzamide]",50 to 100
14,"Cn1cc(-c2cccc(C(=O)Nc3nc(CCCC(=O)N4CCCC(O)C4)cn3-c3ccccc3)c2)cn1 (stereo not drawn) [Example 178, N-(4-(4-(3-hydroxypiperidin-1-yl)-4-oxobutyl)-1-phenyl-1H-imidazol-2-yl)-3-(1-methyl-1H-pyrazol-4-yl)benzamide]",< 50
15,"Cn1cc(-c2cccc(C(=O)Nc3nc(CCCC(=O)N4CCC(O)CC4)cn3-c3ccccc3)c2)cn1 [Example 169, N-(4-(4-(4-hydroxypiperidin-1-yl)-4-oxobutyl)-1-phenyl-1H-imidazol-2-yl)-3-(1-methyl-1H-pyrazol-4-yl)benzamide]",< 50
16,"CN(C(=O)CCCc1cn(-c2ccccc2)c(NC(=O)c2cccc(-c3cnn(C)c3F)c2)n1)C1CC1 [Example 233, N-(4-(4-(cyclopropyl(methyl)amino)-4-oxobutyl)-1-phenyl-1H-imidazol-2-yl)-3-(5-fluoro-1-methyl-1H-pyrazol-4-yl)benzamide]",50 to 100
17,"O=C(Nc1nc(CCC(=O)N2CCN(Cc3ccc(OC(F)(F)F)cc3)CC2)cn1-c1ccccc1)c1cccc(-c2cn[nH]c2)c1 [Example 14, N-(4-(3-oxo-3-(4-(4-(trifluoromethoxy)benzyl)piperazin-1-yl)propyl)-1-phenyl-1H-imidazol-2-yl)-3-(1H-pyrazol-4-yl)benzamide]",> 100
18,"COC[C@@H]1CCCN1C(=O)CCCc1cn(-c2ccccc2)c(NC(=O)c2cccc(-c3cn[nH]c3)c2)n1 [Example 55, (S)—N-(4-(4-(2-(methoxymethyl)pyrrolidin-1-yl)-4-oxobutyl)-1-phenyl-1H-imidazol-2-yl)-3-(1H-pyrazol-4-yl)benzamide]",< 50

# Other lines, results leading:
row,IC50 [nM],Structure (SMILES)
1,< 50,"COC[C@H]1CCCN1NC(=O)CCCCCc1cn(-c2ccccc2)c(NC(=O)c2cccc(-c3cn[nH]c3)c2)n1 [Example 99, (R)—N-(4-(6-((2-(methoxymethyl)pyrrolidin-1-yl)amino)-6-oxohexyl)-1-phenyl-1H-imidazol-2-yl)-3-(1H-pyrazol-4-yl)benzamide]"
2,< 50,"CN(C)C1CCN(C(=O)CCCCCc2cn(-c3ccccc3)c(NC(=O)c3cccc(-c4ccc5ncsc5c4)c3)n2)CC1 [Example 287, 3-(benzo[d]thiazol-6-yl)-N-(4-(6-(4-(dimethylamino)piperidin-1-yl)-6-oxohexyl)-1-phenyl-1H-imidazol-2-yl)benzamide]"
3,< 50,"Nc1ccc(-c2cccc(C(=O)Nc3nc(CCCCCCNC(=O)C4CC4)cn3-c3ccccc3)c2)cn1 [Example 278, 3-(6-aminopyridin-3-yl)-N-(4-(6-(cyclopropanecarboxamido)hexyl)-1-phenyl-1H-imidazol-2-yl)benzamide]"
4,< 50,"CN1CCN(C(=O)CCCCCc2cn(-c3ccccc3)c(NC(=O)c3cccc(-c4ccc5[nH]ncc5c4)c3)n2)CC1 [Example 239, 3-(1H-indazol-5-yl)-N-(4-(6-(4-methylpiperazin-1-yl)-6-oxohexyl)-1-phenyl-1H-imidazol-2-yl)benzamide]"
5,< 50,"Nc1ccc(-c2cccc(C(=O)Nc3nc(CCCCN4CCCC4=O)cn3-c3ccccc3)c2)cn1 [Example 277, 3-(6-aminopyridin-3-yl)-N-(4-(4-(2-oxopyrrolidin-1-yl)butyl)-1-phenyl-1H-imidazol-2-yl)benzamide]"
6,< 50,"Cn1cc(-c2cccc(C(=O)Nc3nc(CCCCC(=O)NCCN4CCOCC4)cn3-c3ccccc3)c2)cn1 [Example 198, 3-(1-methyl-1H-pyrazol-4-yl)-N-(4-(5-((2-morpholinoethyl)amino)-5-oxopentyl)-1-phenyl-1H-imidazol-2-yl)benzamide]"
7,< 50,"Cn1cc(-c2cccc(C(=O)Nc3nc(CCCCCC(=O)NC4CC4)cn3-c3ccccc3)c2)cn1 [Example 199, N-(4-(6-(cyclopropylamino)-6-oxohexyl)-1-phenyl-1H-imidazol-2-yl)-3-(1-methyl-1H-pyrazol-4-yl)benzamide]"
8,< 50,"O=C(Nc1nc(CCCCCN2CCCCC2)cn1-c1ccccc1)c1cccc(-c2cn[nH]c2)c1 [Example 118, N-(1-phenyl-4-(5-(piperidin-1-yl)pentyl)-1H-imidazol-2-yl)-3-(1H-pyrazol-4-yl)benzamide]"
9,> 100,"Cn1ncc2cc(-c3cccc(C(=O)Nc4nc(CCCCCCN5CCOCC5)cn4-c4ccccc4)c3)ccc21 [Example 264, 3-(1-methyl-1H-indazol-5-yl)-N-(4-(6-morpholinohexyl)-1-phenyl-1H-imidazol-2-yl)benzamide]"
10,< 50,"CN1CCN(C(=O)CCCCCc2cn(-c3ccccc3)c(NC(=O)c3cccc(-c4ccc5ncsc5c4)c3)n2)CC1 [Example 285, 3-(benzo[d]thiazol-6-yl)-N-(4-(6-(4-methylpiperazin-1-yl)-6-oxohexyl)-1-phenyl-1H-imidazol-2-yl)benzamide]"
11,< 50,"Cn1cc(-c2cccc(C(=O)Nc3nc(CCCC(=O)N4CCNCC4)cn3-c3ccccc3)c2)cn1 [Example 202, 3-(1-methyl-1H-pyrazol-4-yl)-N-(4-(4-oxo-4-(piperazin-1-yl)butyl)-1-phenyl-1H-imidazol-2-yl)benzamide]"
12,< 50,"O=C(Nc1nc(CCC[N+]2([O-])CCOCC2)cn1-c1ccccc1)c1cccc(-c2cn[nH]c2)c1 [Example 126, 4-(3-(2-(3-(1H-pyrazol-4-yl)benzamido)-1-phenyl-1H-imidazol-4-yl)propyl)morpholine 4-oxide]"

# Source: patent US12534452B2, “N-(1H-imidazol-2-yl)benzamide compound and pharmaceutical composition comprising the same as active ingredient” (KAINOS MEDICINE, INC., priority 2019, dated 2026)
